Laboratory results as given in PubChem BioAssay (NCI).
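All cell lines were grown in 96-well plates and treated with compound for 48 hours. GI50: concentration for 50% inhibition of growth. Definition used: TGI = concentration required for complete inhibition of growth.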

Legend:
Test in all cases: NCI-60 cell line screen, 48 h
[1] = system: A549 NSCLC
[2] = system: BT-549 breast
[3] = system: MCF7 breast
[4] = system: NCI/ADR-RES ovarian
[5] = system: OVCAR-5 ovarian
[6] = system: RPMI-8226 leukemia
[7] = system: T-47D breast
[8] = system: MOLT-4 leukemia
[9] = system: NCI-H226 lung
[10] = system: SF-539 CNS

CCOC(=O)/C(C=Nc1ccc(-c2nc3ccccc3[nH]2)cc1)=C(/C)O showed a GI50 [1] of 12 µM, a TGI [1] of 29.9 µM and a GI50 [2] of 10 µM. It also gave a TGI [2] of 24.9 µM, a GI50 [3] of 11.7 µM and a TGI [3] of over 50 µM. The GI50 [4] was 13 µM, the TGI [4] was 32.2 µM and the GI50 [5] was 17.1 µM. It also gave a TGI [5] of 36.3 µM, a GI50 [6] of 8.12 µM and a TGI [6] of 40.1 µM. For the same compound, the GI50 [7] was 10.3 µM and the TGI [7] was 35.4 µM.

Compound CCOC(=O)Nc1ccc2c(c1)/C(=N\NC(N)=S)c1ccccc1-2 has a GI50 [1] of 3.79 µM, a TGI [1] of 19.7 µM and a GI50 [2] of 4.24 µM. It also gave a TGI [2] of 14.3 µM, a GI50 [3] of 3.15 µM and a TGI [3] of 23.8 µM. For the same compound, the GI50 [8] was 2.83 µM, the TGI [8] was 13.2 µM and the GI50 [9] was 4.43 µM. It also gave a TGI [9] of 17.6 µM, a GI50 [4] of 2.75 µM and a TGI [4] of 9.4 µM. It also gave a GI50 [5] of 16.8 µM, a TGI [5] of 59.4 µM and a GI50 [6] of 2.49 µM. For the same compound, the TGI [6] was 12.9 µM, the GI50 [10] was 3.75 µM and the TGI [10] was 17.3 µM. For the same compound, the GI50 [7] was 2.48 µM and the TGI [7] was 9.84 µM.

Compound CCOC(=O)c1c(C)nc2c(c1N)CC(=O)N2Cc1ccc(OC)cc1 has a GI50 [2] of 6.3 µM, a TGI [2] of over 100 µM and a GI50 [3] of over 100 µM. The TGI [3] was over 100 µM, the GI50 [8] was 81.3 µM and the TGI [8] was over 100 µM. It also gave a GI50 [9] of 7.36 µM, a TGI [9] of over 100 µM and a GI50 [4] of 4.96 µM. For the same compound, the TGI [4] was over 100 µM, the GI50 [5] was over 100 µM and the TGI [5] was over 100 µM. The GI50 [6] was over 100 µM, the TGI [6] was over 100 µM and the GI50 [10] was 7.03 µM. It also gave a TGI [10] of over 100 µM, a GI50 [7] of 25.9 µM and a TGI [7] of over 100 µM.

COc1cc(C(O)CCBr)c(OC)cc1C (centres undefined) showed a TGI [1] of over 100 µM, a TGI [2] of over 84.4 µM and a TGI [3] of 54.7 µM. The TGI [8] was over 100 µM, the TGI [9] was over 100 µM and the TGI [4] was over 57.6 µM. For the same compound, the TGI [5] was over 100 µM, the TGI [6] was over 100 µM and the TGI [10] was 31.3 µM. The TGI [7] was over 100 µM.

CN1CCC2(CC1)ONC1=NCCN12 was tested, and the GI50 [2] was 53.1 µM, the TGI [2] was over 100 µM and the GI50 [3] was 23 µM. The TGI [3] was 87.1 µM, the GI50 [8] was 23.6 µM and the TGI [8] was over 100 µM. The GI50 [9] was 21.8 µM, the TGI [9] was 63.5 µM and the GI50 [4] was 19.6 µM. The TGI [4] was 70.3 µM, the GI50 [10] was 47.5 µM and the TGI [10] was over 100 µM. It also gave a GI50 [7] of 99.8 µM and a TGI [7] of over 100 µM.

C=C1C(=O)O[C@@H]2C[C@@H](C)[C@@H]3C=CC(=O)[C@@]3(C)[C@@H](O)[C@H]12 gave a TGI [1] of 11.8 µM, a TGI [2] of 2.32 µM and a TGI [3] of 2.3 µM. For the same compound, the TGI [8] was 3.36 µM, the TGI [9] was 4.9 µM and the TGI [5] was 3.37 µM. The TGI [6] was 2.81 µM, the TGI [10] was 9.36 µM and the TGI [7] was 12.2 µM.

C=CCN=c1sc2c(n1NC(=O)c1cc3ccc1CCc1ccc(cc1)CC3)C(=O)c1ccccc1C2=O showed a GI50 [1] of 2.26 µM, a TGI [1] of 5.61 µM and a GI50 [2] of 1.53 µM. It also gave a TGI [2] of 2.91 µM, a GI50 [3] of 1.23 µM and a TGI [3] of 3.36 µM. It also gave a GI50 [8] of 1.22 µM, a TGI [8] of 5.76 µM and a GI50 [9] of 1.61 µM. The TGI [9] was 3.35 µM, the GI50 [5] was 2.03 µM and the TGI [5] was 4.38 µM. It also gave a GI50 [10] of 1.69 µM, a TGI [10] of 3.12 µM and a GI50 [7] of 2.02 µM. For the same compound, the TGI [7] was 7.29 µM.

COC12C=C/C(=C(/C(=O)OCc3cncnc3)C(=O)CCCCCCCCC3(OC)C=C/C(=C(/C(=O)OCc4cncnc4)C(=O)CCCCCCCC1)O3)O2 gave a GI50 [1] of 0.848 µM, a TGI [1] of 2.24 µM and a GI50 [2] of 0.188 µM. It also gave a TGI [2] of 2.07 µM, a GI50 [3] of 0.209 µM and a TGI [3] of 2.32 µM. The GI50 [9] was 0.656 µM, the TGI [9] was 1.65 µM and the GI50 [4] was 0.609 µM. It also gave a TGI [4] of over 50 µM, a GI50 [5] of 0.783 µM and a TGI [5] of 2.03 µM. The GI50 [6] was 0.207 µM, the TGI [6] was 3.55 µM and the GI50 [10] was 0.952 µM. It also gave a TGI [10] of 2.47 µM, a GI50 [7] of 0.232 µM and a TGI [7] of over 50 µM.

For N#CC1(C#N)C2(c3ccccc3)OC(c3ccccc3)(c3cc4ccccc4cc32)C1(C#N)C#N, the TGI [1] was 33.9 µM, the TGI [3] was 27.8 µM and the TGI [8] was 4.88 µM. The TGI [9] was 37.2 µM, the TGI [4] was 43.8 µM and the TGI [5] was 29.3 µM. It also gave a TGI [6] of 5.34 µM, a TGI [10] of 29.6 µM and a TGI [7] of 46.5 µM.

With O=C(c1ccccc1)c1ccccc1-c1ccccc1 the GI50 [1] was 4.87 µM, the TGI [1] was over 100 µM and the GI50 [2] was 10.3 µM. It also gave a TGI [2] of over 100 µM, a GI50 [3] of 2.97 µM and a TGI [3] of over 100 µM. For the same compound, the GI50 [9] was 19.6 µM, the TGI [9] was over 100 µM and the GI50 [4] was 1 µM. For the same compound, the TGI [4] was 8.02 µM, the GI50 [5] was 14.6 µM and the TGI [5] was over 100 µM. For the same compound, the GI50 [6] was 4.91 µM, the TGI [6] was 52 µM and the GI50 [10] was 3.06 µM. It also gave a TGI [10] of 15.3 µM, a GI50 [7] of 6.08 µM and a TGI [7] of over 100 µM.

Work on CC(C)Cn1cnc2c(SCc3ccc(Cl)cc3Cl)nc(N)nc21 yielded a TGI [1] of over 100 µM, a TGI [2] of over 100 µM and a TGI [3] of 47.8 µM. It also gave a TGI [8] of 26.9 µM, a TGI [4] of over 100 µM and a TGI [5] of over 100 µM. For the same compound, the TGI [6] was 74.8 µM, the TGI [10] was 36.5 µM and the TGI [7] was over 100 µM.

O=C(O)CN(CC(=O)O)Cc1cc(C#Cc2ccc(C#Cc3ccccc3)cc2)cc(CN(CC(=O)O)CC(=O)O)n1 was tested, and the TGI [1] was over 100 µM, the TGI [2] was 66.6 µM and the TGI [3] was 41.8 µM. It also gave a TGI [8] of 53.7 µM, a TGI [9] of 58.7 µM and a TGI [4] of 35.6 µM. It also gave a TGI [5] of over 81.6 µM, a TGI [6] of 48.8 µM and a TGI [10] of 59.3 µM.

With NS(=O)(=O)c1ccc(-n2nc(-c3ccc(Cl)cc3)cc2-c2cc(O)ccc2O)cc1 the GI50 [1] was 12.2 µM, the TGI [1] was 30.4 µM and the GI50 [2] was 23.9 µM. It also gave a TGI [2] of 58.3 µM, a GI50 [3] of 5.97 µM and a TGI [3] of over 100 µM. It also gave a GI50 [8] of 5.15 µM, a TGI [8] of over 100 µM and a GI50 [9] of 10.1 µM. It also gave a TGI [9] of 24.5 µM, a GI50 [4] of 20.9 µM and a TGI [4] of 47.6 µM. The GI50 [5] was 15.7 µM, the TGI [5] was 31.1 µM and the GI50 [6] was 3.15 µM. The TGI [6] was 11.7 µM, the GI50 [10] was 25.4 µM and the TGI [10] was 46.7 µM.

With Cc1c[n+](=O)c2ccccc2n1[O-] the TGI [1] was over 100 µM, the TGI [2] was over 100 µM and the TGI [3] was over 100 µM. The TGI [8] was over 100 µM, the TGI [4] was over 100 µM and the TGI [5] was over 100 µM. For the same compound, the TGI [6] was over 100 µM, the TGI [10] was over 100 µM and the TGI [7] was over 100 µM.

COc1ccc(C(=S)N2CCN(c3cccc(C)c3)CC2)cc1OC gave a GI50 [1] of 6.37 µM, a TGI [1] of over 100 µM and a GI50 [2] of 6.31 µM. It also gave a TGI [2] of over 100 µM, a GI50 [3] of 3.06 µM and a TGI [3] of over 100 µM. The GI50 [9] was over 100 µM, the TGI [9] was over 100 µM and the GI50 [5] was over 100 µM. The TGI [5] was over 100 µM, the GI50 [10] was 5.1 µM and the TGI [10] was over 100 µM. For the same compound, the GI50 [7] was 4.33 µM and the TGI [7] was over 100 µM.

CC1(C)C2CCC13C(=O)C1OC3(C2)C2C(=O)c3cc4ccccc4cc3C(=O)C12 (centres undefined) showed a GI50 [1] of 26.2 µM, a TGI [1] of 76.3 µM and a GI50 [3] of 6.17 µM. It also gave a TGI [3] of over 100 µM, a GI50 [8] of 1.76 µM and a TGI [8] of 19.2 µM. For the same compound, the GI50 [9] was 24.9 µM, the TGI [9] was 95.2 µM and the GI50 [4] was 2.71 µM. The TGI [4] was 15.9 µM, the GI50 [5] was 18.4 µM and the TGI [5] was over 100 µM. For the same compound, the GI50 [10] was 40.1 µM, the TGI [10] was 72 µM and the GI50 [7] was 4.68 µM. The TGI [7] was 50.5 µM.

CCOc1cccc(/C=N/N=C2\C(=O)Nc3c(Cl)cc(Cl)cc32)c1O gave a TGI [1] of over 100 µM, a TGI [2] of over 100 µM and a TGI [3] of over 100 µM. For the same compound, the TGI [8] was over 100 µM, the TGI [9] was over 100 µM and the TGI [4] was over 100 µM. For the same compound, the TGI [5] was over 100 µM and the TGI [10] was over 100 µM.
